Consider five compounds from ChEMBL document CHEMBL1130509 (Bioorg Med Chem Lett, 1997).

A value given as a limit tells only on which side of the number the result lay.

Experiment [1] deals with 5-hydroxytryptamine receptor 4 (Rattus norvegicus, UniProt Q62758). In words: Agonist activity against serotonin 5-HT4 receptor in rat tunica muscularis mucosae assay. Type of experiment: functional.
Experiment [2] has as its target T1, D(2) dopamine receptor (Homo sapiens, UniProt P14416). Nature of the experiment: Compound was tested for inhibitory activity against Dopamine D2 receptor.
The target in experiment [3] is Adrenergic receptor beta (Homo sapiens, UniProt P08588+P07550+P13945). In words: Compound was tested for inhibitory activity against Beta adrenergic receptor. The experiment is classed as protein assay.
In experiment [4] the target is Substance-P receptor (Homo sapiens, UniProt P25103). In words: Compound was tested for inhibitory activity against Tachykinin receptor 1.
The target of experiment [5] is T2, Alpha-1B adrenergic receptor (Homo sapiens, UniProt P35368).
T2 sequence (P35368 whole entry): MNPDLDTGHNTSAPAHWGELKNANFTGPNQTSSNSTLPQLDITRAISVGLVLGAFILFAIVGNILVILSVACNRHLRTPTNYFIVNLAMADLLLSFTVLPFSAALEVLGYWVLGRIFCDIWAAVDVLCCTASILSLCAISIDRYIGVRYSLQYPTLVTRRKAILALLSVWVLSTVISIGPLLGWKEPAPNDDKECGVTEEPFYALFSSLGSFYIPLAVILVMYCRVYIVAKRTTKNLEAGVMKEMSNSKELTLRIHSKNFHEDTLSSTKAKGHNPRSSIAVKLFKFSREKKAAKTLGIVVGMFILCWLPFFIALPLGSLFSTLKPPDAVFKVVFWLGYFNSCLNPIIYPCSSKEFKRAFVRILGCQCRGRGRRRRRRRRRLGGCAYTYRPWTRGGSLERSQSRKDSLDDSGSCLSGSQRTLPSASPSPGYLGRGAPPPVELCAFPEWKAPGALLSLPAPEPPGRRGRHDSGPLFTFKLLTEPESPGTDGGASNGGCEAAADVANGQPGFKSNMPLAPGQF
Nature of the experiment: Compound was tested for inhibitory activity against adrenergic alpha-1 receptor.

Experiment [6] deals with T3, Alpha-2A adrenergic receptor (Rattus norvegicus, UniProt P22909).
T3 sequence (P22909 whole entry): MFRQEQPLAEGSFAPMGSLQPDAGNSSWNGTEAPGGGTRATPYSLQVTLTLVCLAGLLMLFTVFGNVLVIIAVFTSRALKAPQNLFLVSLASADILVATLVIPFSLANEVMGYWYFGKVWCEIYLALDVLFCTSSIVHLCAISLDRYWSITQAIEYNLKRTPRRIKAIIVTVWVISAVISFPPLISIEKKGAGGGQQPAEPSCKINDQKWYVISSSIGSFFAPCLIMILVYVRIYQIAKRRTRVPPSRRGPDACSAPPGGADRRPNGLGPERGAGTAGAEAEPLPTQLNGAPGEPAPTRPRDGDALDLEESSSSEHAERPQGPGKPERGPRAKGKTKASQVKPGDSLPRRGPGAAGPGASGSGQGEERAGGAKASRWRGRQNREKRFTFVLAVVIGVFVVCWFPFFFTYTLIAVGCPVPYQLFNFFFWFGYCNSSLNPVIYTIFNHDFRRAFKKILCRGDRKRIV
In words: Compound was tested for inhibitory activity against adrenergic alpha-2 receptor.

Experiment [7] concerns the target T4, 5-hydroxytryptamine receptor 3A (Homo sapiens, UniProt P46098).
T4 sequence (P46098 whole entry): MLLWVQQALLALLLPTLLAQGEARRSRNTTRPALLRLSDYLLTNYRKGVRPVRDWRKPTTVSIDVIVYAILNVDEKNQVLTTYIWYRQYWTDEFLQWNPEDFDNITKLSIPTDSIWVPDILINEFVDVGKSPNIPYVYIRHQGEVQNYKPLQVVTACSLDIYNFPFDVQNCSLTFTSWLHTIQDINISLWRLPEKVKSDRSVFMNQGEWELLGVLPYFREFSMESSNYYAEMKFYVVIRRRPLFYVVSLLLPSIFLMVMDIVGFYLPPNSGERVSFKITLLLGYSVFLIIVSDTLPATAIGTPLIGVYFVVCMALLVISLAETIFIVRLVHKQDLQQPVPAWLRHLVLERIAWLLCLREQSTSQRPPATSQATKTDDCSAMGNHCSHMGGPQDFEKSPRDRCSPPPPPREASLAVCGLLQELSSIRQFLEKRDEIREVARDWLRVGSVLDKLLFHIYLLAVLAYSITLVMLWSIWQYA
Nature of the experiment: (§1) Compound was tested for its binding affinity for the 5-hydroxytryptamine 3 receptor.

For experiment [8], the target named is Muscarinic acetylcholine receptor M3 (Rattus norvegicus, UniProt P08483). Nature of the experiment: Compound was tested for inhibitory activity against Muscarinic acetylcholine receptor.
Experiment [9] in a line: Compound was tested for inhibitory activity against 5-hydroxytryptamine 1 receptor.
Experiment [10] concerns the target Serotonin 2 (5-HT2) receptor (Homo sapiens, UniProt P41595+P28223+P28335). Nature of the experiment: Compound was tested for inhibitory activity against 5-hydroxytryptamine 2 receptor. The experiment is classed as protein assay.
The target of experiment [11] is D(1A) dopamine receptor (Homo sapiens, UniProt P21728). In words: Compound was tested for inhibitory activity against Dopamine D1 receptor.
Experiment [12] concerns the target T1, D(2) dopamine receptor. In words: Compound was selective with respect to binding at the Dopamine receptor D2.
Experiment [13] relates to Mus musculus. In words: Compound was tested for inhibition of serotonin 5-HT3 receptor mediated bradycardia in Bezold-Jarisch reflex model in mice at 1 mg/kg after intraperitoneal administration. The experiment is classed as functional. The note with it: ip.
Experiment [14] concerns the target T5, Serotonin 3 (5-HT3) receptor (Rattus norvegicus, UniProt P35563+Q9JJ16).
T5 sequence (P35563 whole entry): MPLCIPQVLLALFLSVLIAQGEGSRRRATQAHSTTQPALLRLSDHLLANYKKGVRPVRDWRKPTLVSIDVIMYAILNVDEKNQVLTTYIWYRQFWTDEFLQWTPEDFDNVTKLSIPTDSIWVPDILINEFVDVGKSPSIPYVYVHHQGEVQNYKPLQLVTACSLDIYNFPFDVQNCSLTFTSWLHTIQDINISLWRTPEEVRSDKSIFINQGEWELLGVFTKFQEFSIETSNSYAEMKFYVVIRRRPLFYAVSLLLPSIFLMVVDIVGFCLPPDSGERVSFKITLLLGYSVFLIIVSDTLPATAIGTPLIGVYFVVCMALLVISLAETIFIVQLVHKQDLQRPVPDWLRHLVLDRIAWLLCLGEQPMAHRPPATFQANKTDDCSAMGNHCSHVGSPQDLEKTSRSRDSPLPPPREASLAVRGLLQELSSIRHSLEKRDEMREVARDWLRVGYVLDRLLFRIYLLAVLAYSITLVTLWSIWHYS
T5 sequence (Q9JJ16 whole entry): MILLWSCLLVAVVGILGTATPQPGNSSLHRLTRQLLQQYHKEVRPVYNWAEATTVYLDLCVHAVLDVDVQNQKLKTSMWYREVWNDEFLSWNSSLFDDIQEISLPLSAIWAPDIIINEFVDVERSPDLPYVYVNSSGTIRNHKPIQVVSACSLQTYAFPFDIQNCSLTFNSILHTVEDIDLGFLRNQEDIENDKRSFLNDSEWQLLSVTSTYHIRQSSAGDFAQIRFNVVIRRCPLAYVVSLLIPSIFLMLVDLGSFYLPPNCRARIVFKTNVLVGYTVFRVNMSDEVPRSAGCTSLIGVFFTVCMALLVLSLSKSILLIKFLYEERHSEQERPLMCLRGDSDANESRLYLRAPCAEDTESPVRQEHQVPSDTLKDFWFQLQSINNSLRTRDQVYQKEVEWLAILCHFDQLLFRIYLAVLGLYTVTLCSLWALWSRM
Described as §1. Type of experiment: protein-complex assay.

Chain of 5-hydroxytryptamine receptor 4 (Q62758 whole entry): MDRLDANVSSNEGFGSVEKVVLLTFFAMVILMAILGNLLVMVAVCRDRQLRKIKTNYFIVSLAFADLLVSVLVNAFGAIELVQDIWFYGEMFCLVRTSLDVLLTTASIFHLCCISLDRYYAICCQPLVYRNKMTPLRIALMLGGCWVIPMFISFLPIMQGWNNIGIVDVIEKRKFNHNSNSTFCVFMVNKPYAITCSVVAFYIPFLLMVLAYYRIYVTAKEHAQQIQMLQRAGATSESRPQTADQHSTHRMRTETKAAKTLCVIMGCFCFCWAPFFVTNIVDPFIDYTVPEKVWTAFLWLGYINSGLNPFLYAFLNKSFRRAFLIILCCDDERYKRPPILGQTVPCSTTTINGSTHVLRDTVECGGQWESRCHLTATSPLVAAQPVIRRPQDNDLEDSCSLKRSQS
T1 sequence (P14416 whole entry): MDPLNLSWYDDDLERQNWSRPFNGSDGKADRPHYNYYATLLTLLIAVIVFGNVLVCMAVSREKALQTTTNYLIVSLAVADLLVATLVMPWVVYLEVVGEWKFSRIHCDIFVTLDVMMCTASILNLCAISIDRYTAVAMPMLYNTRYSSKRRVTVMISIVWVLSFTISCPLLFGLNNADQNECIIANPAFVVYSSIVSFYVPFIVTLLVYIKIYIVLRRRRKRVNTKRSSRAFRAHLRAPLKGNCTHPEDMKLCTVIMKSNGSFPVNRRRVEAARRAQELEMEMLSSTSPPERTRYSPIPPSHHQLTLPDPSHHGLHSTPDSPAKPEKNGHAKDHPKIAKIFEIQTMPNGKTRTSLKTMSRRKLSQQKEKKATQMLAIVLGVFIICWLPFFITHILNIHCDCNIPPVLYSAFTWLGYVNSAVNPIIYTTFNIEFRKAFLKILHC
Chain of Substance-P receptor (P25103 whole entry): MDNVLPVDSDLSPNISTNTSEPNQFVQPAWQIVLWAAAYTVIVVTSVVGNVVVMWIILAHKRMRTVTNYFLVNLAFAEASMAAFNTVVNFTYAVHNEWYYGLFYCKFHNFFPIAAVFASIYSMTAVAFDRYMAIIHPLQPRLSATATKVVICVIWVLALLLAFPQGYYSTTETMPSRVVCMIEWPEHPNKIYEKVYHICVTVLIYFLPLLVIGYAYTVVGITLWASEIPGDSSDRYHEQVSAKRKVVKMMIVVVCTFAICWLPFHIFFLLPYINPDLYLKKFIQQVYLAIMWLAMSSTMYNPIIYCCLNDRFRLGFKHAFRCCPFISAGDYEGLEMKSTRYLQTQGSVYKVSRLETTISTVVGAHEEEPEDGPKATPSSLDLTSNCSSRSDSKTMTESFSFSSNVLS
Chain of D(1A) dopamine receptor (P21728 whole entry): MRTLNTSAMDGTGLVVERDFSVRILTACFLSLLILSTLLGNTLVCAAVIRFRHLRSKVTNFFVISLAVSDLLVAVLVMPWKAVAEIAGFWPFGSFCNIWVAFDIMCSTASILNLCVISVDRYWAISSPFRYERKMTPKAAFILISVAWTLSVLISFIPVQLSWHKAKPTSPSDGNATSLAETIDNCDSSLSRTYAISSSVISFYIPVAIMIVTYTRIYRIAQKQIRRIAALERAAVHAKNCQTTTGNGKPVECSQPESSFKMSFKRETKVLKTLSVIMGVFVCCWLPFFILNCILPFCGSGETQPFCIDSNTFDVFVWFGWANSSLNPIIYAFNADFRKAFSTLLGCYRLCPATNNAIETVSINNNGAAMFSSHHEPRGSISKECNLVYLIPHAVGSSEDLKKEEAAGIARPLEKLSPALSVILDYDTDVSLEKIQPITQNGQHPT
Chain of Muscarinic acetylcholine receptor M3 (P08483 whole entry): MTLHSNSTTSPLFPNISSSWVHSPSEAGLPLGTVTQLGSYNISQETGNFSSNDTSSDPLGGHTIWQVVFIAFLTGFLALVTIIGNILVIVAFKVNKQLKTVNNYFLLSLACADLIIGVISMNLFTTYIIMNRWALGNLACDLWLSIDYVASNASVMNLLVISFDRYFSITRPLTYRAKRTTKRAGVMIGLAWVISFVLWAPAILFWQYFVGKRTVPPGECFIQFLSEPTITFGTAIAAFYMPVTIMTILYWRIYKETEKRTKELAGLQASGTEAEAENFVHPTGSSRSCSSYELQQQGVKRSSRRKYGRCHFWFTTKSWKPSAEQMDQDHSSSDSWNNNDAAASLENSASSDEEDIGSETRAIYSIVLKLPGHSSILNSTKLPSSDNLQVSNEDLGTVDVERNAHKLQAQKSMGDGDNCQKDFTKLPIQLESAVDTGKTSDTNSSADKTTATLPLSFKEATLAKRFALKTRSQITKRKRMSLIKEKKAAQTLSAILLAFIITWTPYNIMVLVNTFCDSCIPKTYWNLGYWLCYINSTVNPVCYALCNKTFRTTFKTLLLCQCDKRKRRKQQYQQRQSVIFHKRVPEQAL

Turning to `COc1cc(NC(C)=O)c(Cl)cc1C(=O)NC1C2CC3CC1CN3C2` (configuration not stated), the EC50 (as a rule, the concentration at which the effect is half-maximal) in experiment [1] is more than 10 µM.

`COc1cc(N)c(Cl)cc1C(=O)NC1C2CC3CN(C2)CC31.Cl` (configuration not stated): the IC50 in [2], in experiment [3], in [4], in experiment [5], in experiment [6] and in experiment [8] was more than 10 µM throughout. Also, the IC50 in experiment [9], in experiment [10] and in [11] was more than 10 µM each time. Also, the affinity in [7] corresponds to a Ki of 0.0012 µM. This compound came in with an EC50 in [1] of 0.051 µM.

`COc1cc(N)c(Cl)cc1C(=O)NCCC12CC3CN(CC3C1)C2` yielded an EC50 in experiment [1] of 1.66 µM.

In the case of `COc1cc(N)c(Cl)cc1C(=O)NCC12CC3CN(CC3C1)C2`, in [12], the IC50 (in general, the point on the concentration scale where inhibition reaches its midpoint) was more than 10 µM. Further, in [13], the inhibition in vivo (in general, the change of the read-out against control, counted positive when it falls) at 1 mg/kg was found to be 70%. In addition, the inhibitory constant (Ki) (as a rule, the dissociation constant of the complex between target and ligand, obtained from inhibition or displacement) in [14] worked out at 0.005 µM.

Take `COc1cc(NC(C)=O)c(Cl)cc1C(=O)NCC1C2CC3CC1CN3C2` (configuration not stated): in experiment [1], the EC50 is more than 10 µM.
